Experimental findings from US20220056043A1, “NITROGEN-CONTAINING FUSED CYCLIC COMPOUND, PREPARATION METHOD THEREFOR AND USE THEREOF” (SICHUAN KELUN-BIOTECH BIOPHARMACEUTICAL CO., LTD., priority 2019, published 2022) are described below.

The test deals with T1, hTLR8 (Homo sapiens, UniProt Q9NR97).
T1 construct: host or cells: HEK-Blue hTLR8 cells
T1 sequence (Q9NR97 27-1041): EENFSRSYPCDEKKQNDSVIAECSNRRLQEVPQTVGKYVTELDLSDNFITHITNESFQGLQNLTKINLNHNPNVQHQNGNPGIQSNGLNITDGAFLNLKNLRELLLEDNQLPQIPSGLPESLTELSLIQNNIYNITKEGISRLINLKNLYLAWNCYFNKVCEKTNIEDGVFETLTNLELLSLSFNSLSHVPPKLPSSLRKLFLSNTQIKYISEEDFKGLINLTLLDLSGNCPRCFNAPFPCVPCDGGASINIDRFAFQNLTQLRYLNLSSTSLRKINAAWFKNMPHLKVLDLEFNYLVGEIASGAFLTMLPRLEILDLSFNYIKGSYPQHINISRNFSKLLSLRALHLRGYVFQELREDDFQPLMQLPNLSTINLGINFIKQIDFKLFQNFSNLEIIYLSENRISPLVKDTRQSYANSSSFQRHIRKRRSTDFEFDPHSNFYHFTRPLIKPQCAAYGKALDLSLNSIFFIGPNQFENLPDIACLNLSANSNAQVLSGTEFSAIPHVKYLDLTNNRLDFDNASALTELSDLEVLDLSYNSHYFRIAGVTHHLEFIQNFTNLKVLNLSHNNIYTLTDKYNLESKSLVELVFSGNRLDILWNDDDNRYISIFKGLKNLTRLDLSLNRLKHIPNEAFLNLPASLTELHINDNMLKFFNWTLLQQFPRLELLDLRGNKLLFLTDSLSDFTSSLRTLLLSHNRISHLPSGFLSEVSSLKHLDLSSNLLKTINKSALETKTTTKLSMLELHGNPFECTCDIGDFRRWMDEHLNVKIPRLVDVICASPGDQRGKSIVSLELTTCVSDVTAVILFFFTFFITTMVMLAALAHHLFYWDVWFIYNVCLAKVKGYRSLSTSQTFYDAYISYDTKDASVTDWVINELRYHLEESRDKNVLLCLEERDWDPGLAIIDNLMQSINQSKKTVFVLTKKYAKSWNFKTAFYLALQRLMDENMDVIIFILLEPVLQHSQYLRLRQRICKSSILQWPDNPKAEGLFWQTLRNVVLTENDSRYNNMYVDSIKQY
The test is described as follows: Agonistic effect on hTLR8, HEK-Blue hTLR8 cells, alkaline phosphatase secretion. It counts as cell-based. The conditions noted are these: 16 hours. The method, then:
Experimental Example 4: Agonistic Effect of the Compound of the Invention on hTLR8
In this test, the secretion of alkaline phosphatase in HEK-Blue cells was measured to test the activating effect of the compound of the invention on TLR8 signaling pathway, so as to evaluate the specificity of the agonistic effect of the compound on NLRP3 pathway.
Reagents: DMEM (High glucose); FBS (fetal bovine serum) (Gibco); QUANTI-Blue/InvivoGen/rep-qb2
Cells: HEK-Blue™ hTLR8 cells (human TLR 8 cells) (InvivoGen) Experimental Procedures:
1) The HEK-Blue™ hTLR8 cells in a logarithmic growth phase were trypsinized and resuspended in the medium to a concentration of 2×10^6 cells/mL. 50 μL/well of the cell suspension was added to a 96-well plate. An appropriate amount of 10 mM DMSO solution of the compound to be tested was taken and diluted to a concentration of 2× test concentration with the medium. 50 μL/well was added to the cells in the 96-well plate. The plate was incubated in an incubator at 37° C. and 5% CO2 for 16 hours. The medium was DMEM (High glucose) containing 10% FBS. 2) After the cell incubation, 10 μL of cell culture supernatant was transferred to a 96-well plate. 90 μL/well of QUANTI-Blue detection solution was added, and the mixture was incubated at 37° C. for 3 hours. OD620 was read using a microplate reader.
3) The EC50 of the effect of the tested compound to stimulate hTLR8 was fitted by the GraphPad software log(agonist) vs. response—Variable slope four-parameter method.
In turn, `CC(=O)NCCNc1cc(N)nc2cc(-c3ccn[nH]3)sc12` [Compound 52] gave an EC50 greater than 100 µM. Consider `Nc1cc(NCCCNC(=O)C2CC2)c2sc(-c3ccn[nH]3)cc2n1` [Compound 58], for which the EC50 is greater than 100 µM. With `CCC(=O)N(C)CCNc1cc(N)nc2cc(-c3ccn[nH]3)sc12` [Compound 88, N-(2-((5-amino-2-(1H-pyrazol-5-yl)thieno[3,2-b]pyridin-7-yl)amino)ethyl)-N-methylpropionamide], the EC50 is greater than 100 µM.

For the molecule `CN1CC[C@H](Nc2cc(N)nc3cc(-c4ccn[nH]4)sc23)C1` [Compound 51, (S)—N^7-(1-methylpyrrolidin-3-yl)-2-(1H-pyrazol-5-yl)thieno[3,2-b]pyridine-5,7-diamine], the EC50 was greater than 100 µM. With `Nc1cc(NC2CC(O)C2)c2sc(-c3ccn[nH]3)cc2n1` (stereo not drawn) [Compound 40, 3-((5-amino-2-(1H-pyrazol-5-yl)thieno[3,2-b]pyridin-7-yl)amino)cyclobutanol], the EC50 is greater than 100 µM.

On to `Nc1cc(N2CC3CC(C2)N3C=O)c2sc(-c3ccn[nH]3)cc2n1` [Compound 179], for which the EC50 was greater than 100 µM. Consider `Nc1cc(N2CCOCC2)c2sc(-c3ccn[nH]3)cc2n1` [Compound 170], for which the EC50 was greater than 100 µM. With `Nc1cc(NCC(F)F)c2sc(-c3ccn[nH]3)cc2n1` [Compound 116, N^7-(2,2-difluoroethyl)-2-(1H-pyrazol-5-yl)thieno[3,2-b]pyridine-5,7-diamine] the figure was greater than 100 µM; with `Cn1cc(-c2cc3nc(N)cc(NCCCO)c3s2)cn1` [Compound 109, 3-((5-amino-2-(1-methyl-1H-pyrazol-4-yl)thieno[3,2-b]pyridin-7-yl)amino)-1-propanol], greater than 100 µM.

`Nc1cc(NCC2CC2)c2sc(-c3ccn[nH]3)cc2n1` [Compound 102, N^7-(cyclopropylmethyl)-2-(1H-pyrazol-5-yl)thieno[3,2-b]pyridine-5,7-diamine] came in with an EC50 greater than 100 µM.

For `CO[C@H](C)CNc1cc(N)nc2cc(-c3ccn[nH]3)sc12` [Compound 101, (R)—N^7-(2-methoxypropyl)-2-(1H-pyrazol-5-yl)thieno[3,2-b]pyridine-5,7-diamine], the EC50 was greater than 100 µM.

Regarding `CC(=O)NCCCNc1cc(N)nc2cc(-c3ccn[nH]3)sc12` [Compound 53], the EC50 was greater than 100 µM. With `CN1CCC[C@@H](Nc2cc(N)nc3cc(-c4ccn[nH]4)sc23)C1` [Compound 104, (R)—N^7-(1-methylpiperidin-3-yl)-2-(1H-pyrazol-5-yl)thieno[3,2-b]pyridine-5,7-diamine] the figure was greater than 100 µM; with `CN(CCNc1cc(N)nc2cc(-c3ccn[nH]3)sc12)C(=O)C1CC1` [Compound 75, N-(2-((5-amino-2-(1H-pyrazol-5-yl)thieno[3,2-b]pyridin-7-yl)amino)ethyl)-N-methylcyclopropionamide], greater than 100 µM; with `C[C@@H]1CN(CCNc2cc(N)nc3cc(-c4ccn[nH]4)sc23)C[C@H](C)O1` [Compound 117, N^7-(2-((2S,6R)-2,6-dimethylmorpholino)ethyl)-2-(1H-pyrazol-5-yl)thieno[3,2-b]pyridine-5,7-diamine], greater than 100 µM. Molecule `C[C@@H]1COCCN1c1cc(N)nc2cc(-c3ccn[nH]3)sc12` [Compound 177] registered an EC50 greater than 100 µM. Molecule `CC(=O)N(C)CCCNc1cc(N)nc2cc(-c3ccn[nH]3)sc12` [Compound 74, N-(3-((5-amino-2-(1H-pyrazol-5-yl)thieno[3,2-b]pyridin-7-yl)amino)propyl)-N-methylacetamide] yielded an EC50 greater than 100 µM. In the case of `Nc1cc(N2CCN(C3CCCCC3)CC2)c2sc(-c3ccn[nH]3)cc2n1` [Compound 167], the EC50 was greater than 100 µM. `CC(C)N1CCN(c2cc(N)nc3cc(-c4ccn[nH]4)sc23)CC1` [Compound 162] displayed an EC50 greater than 100 µM. In turn, `Nc1cc(N2CCN(C3CCCC3)CC2)c2sc(-c3ccn[nH]3)cc2n1` [Compound 160] registered an EC50 greater than 100 µM. `Nc1cc(NC2CCOC2)c2sc(-c3ccn[nH]3)cc2n1` (stereo not drawn) [Compound 61, 2-(1H-pyrazol-5-yl)-N^7-(tetrahydrofuran-3-yl)thieno[3,2-b]pyridine-5,7-diamine] showed an EC50 greater than 100 µM. As for `CS(=O)(=O)N1CCN(c2cc(N)nc3cc(-c4ccn[nH]4)sc23)CC1` [Compound 164], the EC50 is greater than 100 µM. Turning to `Cc1c(-c2cc[nH]n2)sc2c(NCCCO)cc(N)nc12` [Compound 159], the EC50 was greater than 100 µM. `CC1CN(CCNc2cc(N)nc3cc(-c4ccn[nH]4)sc23)CC(C)O1` (stereo not drawn) [Compound 62] registered an EC50 greater than 100 µM. `Nc1cc(N2CCC(O)CC2)c2sc(-c3ccn[nH]3)cc2n1` [Compound 172] displayed an EC50 greater than 100 µM. Regarding `Nc1cc(N[C@@H]2CC[C@H](O)C2)c2sc(-c3ccn[nH]3)cc2n1` [Compound 31, (1S,3R)-3-((5-amino-2-(1H-pyrazol-5-yl)thieno[3,2-b]pyridin-7-yl)amino)cyclopentanol], the EC50 is greater than 100 µM. For the molecule `Nc1cc(N[C@@H]2CCC[C@@H]2O)c2sc(-c3ccn[nH]3)cc2n1` [Compound 96, (1S,2R)-2-((5-amino-2-(1H-pyrazol-5-yl)thieno[3,2-b]pyridin-7-yl)amino)cyclopentanol], the EC50 is greater than 100 µM.

For `COCCNc1cc(N)nc2cc(-c3ccn[nH]3)sc12` [Compound 100, N^7-(2-methoxyethyl)-2-(1H-pyrazol-5-yl)thieno[3,2-b]pyridine-5,7-diamine], the EC50 is greater than 100 µM. The molecule `CC1(C)CN(c2cc(N)nc3cc(-c4ccn[nH]4)sc23)CCO1` [Compound 171] gave an EC50 greater than 100 µM. Molecule `Nc1cc(NC2CCCC2)c2sc(-c3ccn[nH]3)cc2n1` [Compound 110, N^7-cyclopentyl-2-(1H-pyrazol-5-yl)thieno[3,2-b]pyridine-5,7-diamine] yielded an EC50 greater than 100 µM.

Molecule `N#CC1(CNc2cc(N)nc3cc(-c4ccn[nH]4)sc23)CC1` [Compound 119] displayed an EC50 greater than 100 µM. The value for `Nc1cc(N[C@H]2CC[C@H](O)C2)c2sc(-c3ccn[nH]3)cc2n1` [Compound 26, (1S,3S)-3-((5-amino-2-(1H-pyrazol-5-yl)thieno[3,2-b]pyridin-7-yl)amino)cyclopentanol] was greater than 100 µM.

The molecule `Cc1c(-c2ccn[nH]2)sc2c(NC[C@@H]3CCCO3)cc(N)nc12` [Compound 157] had an EC50 greater than 100 µM. The value for `Nc1cc(N2CCN(c3ccccc3)CC2)c2sc(-c3ccn[nH]3)cc2n1` [Compound 174] was greater than 100 µM.

For `CC[C@H](CO)Nc1cc(N)nc2cc(-c3ccn[nH]3)sc12` [Compound 95, (R)-2-((5-amino-2-(1H-pyrazol-5-yl)thieno[3,2-b]pyridin-7-yl)amino)butanol], the EC50 was greater than 100 µM.

Turning to `Nc1cc(N[C@H]2C[C@H]2CO)c2sc(-c3ccn[nH]3)cc2n1` [Compound 182s], the EC50 is greater than 100 µM.

In turn, `CC(=O)N(C)CCNc1cc(N)nc2cc(-c3ccn[nH]3)sc12` [Compound 73, N-(2-((5-amino-2-(1H-pyrazol-5-yl)thieno[3,2-b]pyridin-7-yl)amino)ethyl)-N-methylethanamide] registered an EC50 greater than 100 µM. As for `COC(C)(C)CNc1cc(N)nc2cc(-c3ccn[nH]3)sc12` [Compound 111, N^7-(2′-methoxy-2′-methylpropyl)-2-(1H-pyrazol-5-yl)thieno[3,2-b]pyridine-5,7-diamine], the EC50 was greater than 100 µM. The value for `Nc1cc(NCCN2CCOCC2)c2sc(-c3ccn[nH]3)cc2n1` [Compound 55, N^7-(2-morpholinoethyl)-2-(1H-pyrazol-5-yl)thieno[3,2-b]pyridine-5,7-diamine] was greater than 100 µM.

A word on the EC50: it is the concentration giving half of the maximal effect.
